From publication PMC5387716, “Discovery of monocarbonyl curcumin-BTP hybrids as STAT3 inhibitors for drug-sensitive and drug-resistant breast cancer therapy” (Scientific Reports, 2017)

Experiments:
Type in all cases: cell-based, human
STAT3 [1] = assay: IL-6 induced STAT3 phosphorylation (western blot); conditions: 6 h, IL-6 50 ng/mL 30 min
Procedure: MCF-7 or MCF-7/DOX cells were seeded in 6-well plates and allowed to adhere overnight. The following day, the cells were serum-starved. The cells were then left untreated or were treated with 6b (0.5–4 μM). After 6 h, the untreated and 6b-treated cells were stimulated with IL-6 (50 ng/ml). The cells were harvested after 30 min and analyzed by western blot.

MCF-7/DOX cells [2] = assay: Flow cytometry of the cell cycle, MCF-7/DOX; conditions: 24 h
Procedure: MCF-7 or MCF-7/DOX cells were plated in 6-well culture plates (1.5 × 10^5 cells per well). After incubation overnight, various concentrations of 6b or curcumin were added and cells were incubated for 24 h. Cells were harvested, washed with cold PBS, and incubated with pre-cooled 70% ethanol for a minimum of 4 h at 4 °C to fix them. The cells were then centrifuged, carefully aspirated from the supernatant, and re-suspended in a propidium iodide (final concentration, 40 μg/ml) and RNase A (final concentration, 100 μg/ml) solution at a final cell density of 0.5 × 10^6 cells/ml. The suspension was incubated at 37 °C for 30 min prior to analysis by flow cytometry.

Jak2 = assay: Western blot of p-Jak2; conditions: MCF-7 and MCF-7/DOX cells, 24 h
Procedure: (§1) MCF-7 or MCF-7/DOX cells were incubated with various concentrations of 6b for 24 h. After trypsinization, cells were treated with 1× RIPA lysis buffer (50 mM Tris–HCl, pH 7.4, 150 mM NaCl, 0.25% deoxycholic acid, 1% NP-40, 1 mM EDTA and protease inhibitors) (Amresco, Solon, USA) to extract the total proteins. An aliquot of proteins from the total cell lysates (30 to 60 μg/lane) was separated by sodium dodecyl sulfate (10%) polyacrylamide gel electrophoresis (SDS–PAGE, Bio-Rad Laboratories, Hercules, CA), wet-transferred to NC membrane (Bio-Rad Laboratories, Hercules, CA) and blotted with primary antibodies specific for STAT3, p-STAT3, p-Jak2, Jak2, p-Src, Src, Erk, P-Erk, PARP, cleaved PARP, Bcl-2, Bax, Cyclin D1, P-gp and GAPDH. Bound immuno-complexes were detected using ChemiDOC™ XRS + system (Bio-Rad Laboratories, Hercules, CA).

Bcl-2 gene = assay: Quantitative real-time RT-PCR of Bcl-2; conditions: 24 h
Procedure: (§2) Levels of mRNA expression were analyzed with the RT-PCR assay, with total RNA isolated from MCF-7 or MCF-7/DOX cells using an EASYspin Plus tissue/cell RNA extraction kit (Aidlab Biotechnologies Co. Ltd). RNA was quantified by measuring absorption at 260 nm and 1 μg of RNA was reverse transcribed to cDNA using the Transcriptor First Strand cDNA Synthesis Kit (Roche Diagnostics, Basel, Switzerland). Thermal cycling conditions included 95 °C initial denaturation for 5 min, followed by 40 cycles of denaturation (10 s at 95 °C), annealing (15 s at 60 °C) and extension (15 s at 72 °C with a single fluorescence measurement), a melt curve program (60–95 °C with a 0.11 °C/s heat increase and continuous fluorescence measurement) and a cooling step to 40 °C. The Δ cycle threshold method was used for the calculation of relative differences in mRNA abundance with a LightCycler 480 (Roche Molecular Biochemicals, Mannheim, Germany). The data were normalized to the expression of GAPDH. The results were expressed as fold-changes. The RT-PCR primers that were used in this study are listed in the supporting information.

Src = assay: Western blot of p-Src; conditions: MCF-7 and MCF-7/DOX cells, 24 h
Procedure: as §1

Bcl-2 = assay: Western blot of Bcl-2; conditions: MCF-7 and MCF-7/DOX cells, 24 h
Procedure: as §1

Cyclin D1 gene = assay: Quantitative real-time RT-PCR of Cyclin D1; conditions: 24 h
Procedure: as §2

Erk1/2 = assay: Western blot of p-Erk1/2; conditions: MCF-7 and MCF-7/DOX cells, 24 h
Procedure: as §1

Bax gene = assay: Quantitative real-time RT-PCR of Bax; conditions: 24 h
Procedure: as §2

STAT3 [3] = assay: EMSA of STAT3 DNA-binding activity (hSIE probe); conditions: nuclear extracts of MCF-7 cells, 24 h
Procedure: MCF-7 cells were cultured overnight and then treated with compound 6b in fresh regular growth medium for 24 h. The cells were harvested and nuclear extract preparations and EMSA analysis were carried out as previously described. The ^32P-labeled oligonucleotide, hSIE probe, was used to bind STAT3.

STAT3 [4] = assay: Western blot of STAT3 phosphorylation; conditions: MCF-7 and MCF-7/DOX cells
Procedure: as §1

MCF-7/DOX cells [5] = assay: Annexin V-APC/7-AAD flow cytometry of apoptosis, MCF-7/DOX; conditions: 24 h
Procedure: (§3) MCF-7, MCF-7/DOX or MCF-10A cells, at a density of 2.5 × 10^5 cells per well, were cultured in regular growth medium in 6-well plates for 24 h and treated in duplicate with different concentrations of 6b or curcumin for 24 h. The cells were harvested, washed and stained with 5 μL of Annexin V-APC and 5 μL of 7-AAD at room temperature for 15 min. Cells were then analyzed by flow cytometry (488 nm excitation and 600 nm emission filters) using a BD FACSCalibur flow cytometer (Becton & Dickinson Company, Franklin Lakes, NJ).

Bax = assay: Western blot of Bax; conditions: MCF-7 and MCF-7/DOX cells, 24 h
Procedure: as §1

MCF-7 cells = assay: Annexin V-APC/7-AAD flow cytometry of apoptosis, MCF-7; conditions: 24 h
Procedure: as §3

MCF-10A cells = assay: Annexin V-APC/7-AAD flow cytometry of apoptosis, MCF-10A; conditions: concentrations up to 4 μM
Procedure: as §3

In the case of COc1ccc(/C=C/C(=O)N2CCN(C(=O)C3=Cc4cc(Br)ccc4S3(=O)=O)CC2)cc1 [Compound 6b, (E)-1-(4-(5-bromo-1,1-dioxidobenzo[b]thiophene-2-carbonyl)piperazin-1-yl)-3-(4-methoxyphenyl)prop-2-en-1-one], the “STAT3 phosphorylation induced by IL-6” value (STAT3 [1]; MCF-7, 4 μM) was “almost completely abolished”, the “IL-6-induced phosphorylation levels of STAT3” value (STAT3 [1]; MCF-7, low concentration (0.5–4 μM tested)) was “decreased” and the “cells in the Sub-G1 phase” value (MCF-7/DOX cells [2]) was “significant increase”. For the same compound, the “percentage of cells in the G0/G1 phase” value (MCF-7/DOX cells [2]) was “increased”, the “phosphorylation of Jak2” value (Jak2) was “inhibited” and the “decrease in the gene expression level of Bcl-2” value (“decrease … of Bcl-2” below) (Bcl-2 gene; MCF-7/DOX cells, 1.0 μM) was 27.5%. For the same compound, the “decrease … of Bcl-2” value (Bcl-2 gene; MCF-7/DOX cells, 2.0 μM) was 43.5%, the “decrease … of Bcl-2” value (Bcl-2 gene; MCF-7/DOX cells, 4.0 μM) was 71.0% and the “Bcl-2 gene level (in words)” value (Bcl-2 gene; MCF-7 and MCF-7/DOX cells) was “decreased in a dose-dependent manner”. The “decrease … of Bcl-2” value (Bcl-2 gene; MCF-7 cells, 1.0 μM) was 11.7%, the “decrease … of Bcl-2” value (Bcl-2 gene; MCF-7 cells, 2.0 μM) was 45.8% and the “decrease … of Bcl-2” value (Bcl-2 gene; MCF-7 cells, 4.0 μM) was 61.2%. For the same compound, the p-Src expression (Src) was “little effect”, the “expression of Bcl-2 (protein)” value (Bcl-2) was “inhibited” and the “decrease in the gene expression level of Cyclin D1” value (“decrease … of Cyclin D1” for short) (Cyclin D1 gene; MCF-7/DOX cells, 1.0 μM) was 18.5%. The “decrease … of Cyclin D1” value (Cyclin D1 gene; MCF-7/DOX cells, 2.0 μM) was 51.0%, the “decrease … of Cyclin D1” value (Cyclin D1 gene; MCF-7/DOX cells, 4.0 μM) was 75.0% and the “Cyclin D1 gene level (in words)” value (Cyclin D1 gene; MCF-7 and MCF-7/DOX cells) was “decreased in a dose-dependent manner”. For the same compound, the “decrease … of Cyclin D1” value (Cyclin D1 gene; MCF-7 cells, 1.0 μM) was 16.0%, the “decrease … of Cyclin D1” value (Cyclin D1 gene; MCF-7 cells, 2.0 μM) was 28.4% and the “decrease … of Cyclin D1” value (Cyclin D1 gene; MCF-7 cells, 4.0 μM) was 45.5%. For the same compound, the p-Erk1/2 expression (Erk1/2) was “little effect”, the “Bax gene expression increase” value (Bax gene; MCF-7/DOX cells, 1.0 μM) was 14.0% and the “Bax gene expression increase” value (Bax gene; MCF-7/DOX cells, 2.0 μM) was 76.5%. For the same compound, the “Bax gene expression increase” value (Bax gene; MCF-7/DOX cells, 4.0 μM) was 125.0%, the “Bax gene level (in words)” value (Bax gene; MCF-7 and MCF-7/DOX cells) was “upregulated” and the “Bax gene expression increase” value (Bax gene; MCF-7 cells, 1.0 μM) was 15.0%. The “Bax gene expression increase” value (Bax gene; MCF-7 cells, 2.0 μM) was 71.5%, the “Bax gene expression increase” value (Bax gene; MCF-7 cells, 4.0 μM) was 97.5% and the “STAT3 DNA-binding activity” value (STAT3 [3]) was “strongly inhibited STAT3 DNA-binding activity in a dose-dependent manner”. For the same compound, the p-STAT3 level (STAT3 [4]; 1.0 μM) was “significantly inhibited”, the “STAT3 phosphorylation at the Ser727 residue” value (STAT3 [4]; 24 h) was “little effect” and the “STAT3 phosphorylation at the pTyr705 residue” value (STAT3 [4]; 24 h) was “dose-dependent inhibition”. For the same compound, the “total STAT3 protein level” value (STAT3 [4]; 24 h) was “little effect”, the apoptosis rate (MCF-7/DOX cells [5]; 1 μM) was 18.5% and the apoptosis rate (MCF-7/DOX cells [5]; 2 μM) was 50.1%. For the same compound, the apoptosis rate (MCF-7/DOX cells [5]; 4 μM) was 66.4%, the “expression of Bax (protein)” value (Bax) was “increased” and the apoptosis rate (MCF-7 cells; 1 μM) was 15.7%. For the same compound, the apoptosis rate (MCF-7 cells; 2 μM) was 37.9%, the apoptosis rate (MCF-7 cells; 4 μM) was 67.2% and the apoptosis (MCF-10A cells) was “little”.
